According to patent US8647867B2, “Cell cultivation method and cell culture” (National University Corportion Okayama University, priority 2005, dated 2014):

Tests used:
porcine pancreatic islet = assay: Morphological study of cultured porcine pancreatic islet by electron microscope (morphological criteria, points); assay type: cell-based; conditions: porcine pancreatic islets, day 5 of culture
Experimental: (§1) As the inspection method of cultured pancreatic islets, a method is mentioned in which the following 4 items as morphological criteria are evaluated at 5 levels (1 to 5 points) (see, literature: Matsumoto S, Qualley S A, Goel S, et al., Effect of the two-layer (University of Wisconsin solution-Perfluorochemical plus 02) method of pancreas preservation on human islet isolation as assessed by Edmonton isolation protocol. Transplantation 2002; 74: 1414).
(§2) Evaluation is performed at 5 levels of “flat: 1 point”, “approximately flat: 2 points”, “irregularly spherical: 3 points”, “approximately spherical: 4 points”, and “spherical: 5 points”.
(§3) Evaluation is performed at 5 levels of “irregular: 1 point”, “approximately irregular: 2 points”, “somewhat well-rounded: 3 points”, “approximately well-rounded: 4 points”, and “well-rounded: 5 points”. Among these, “well-rounded: 5 points” is most preferable.
(§4) Evaluation is performed at 5 levels of “fragmented: 1 point”, “approximately fragmented: 2 points”, “somewhat solid/compact: 3 points”, “approximately solid/compact: 4 points”, and “solid/compact: 5 points”. Among these, “solid/compact: 5 points” is most preferable.
Evaluation is performed at 5 levels of “smaller than 100 μm for individual cultured pancreatic islets (all <100 μm): 1 point”, “100 to 150 μm for individual cultured pancreatic islets: 2 points”, “[…] for individual cultured pancreatic islets: 3 points”, “150 to 200 μm for individual cultured pancreatic islets: 4 points”, and “larger than 200 μm for at least 10% of individual cultured pancreatic islets (>10%>200 μm): 5 points”. Among these, “larger than 200 μm for at least 10% of individual cultured pancreatic islets: 5 points” is most preferable.
In the above-described criteria, the shape “flat” means that when a pancreatic islet is considered to be elliptic sphere, the ratio of major axis/minor axis is at least 10, the shape “approximately flat” means that the above-described ratio of major axis/minor axis is at least 5 and less than 10, the shape “irregularly spherical” means that the above-described ratio of major axis/minor axis is at least 2 and less than 5, the shape “approximately spherical” means that the above-described ratio of major axis/minor axis is at least 1.2 and less than 2, and the shape “spherical” means that the above-described ratio of major axis/minor axis is less than 1.2. […]

human pancreatic islet = assay: Morphological study of cultured human pancreatic islet by electron microscope (morphological criteria, points); assay type: cell-based; conditions: human pancreatic islets, day 5 of culture
Experimental: as §1, §2, §3, §4
Evaluation is performed at 5 levels of “smaller than 100 μm for individual cultured pancreatic islets (all <100 μm): 1 point”, “100 to 150 μm for individual cultured pancreatic islets: 2 points”, “[…] for individual cultured pancreatic islets: 3 points”, “150 to 200 μm for individual cultured pancreatic islets: 4 points”, and “larger than 200 μm for at least 10% of individual cultured pancreatic islets (>10%>200 μm): 5 points”. Among these, “larger than 200 μm for at least 10% of individual cultured pancreatic islets: 5 points” is most preferable. […]

porcine hepatocyte [1] = assay: Viability of porcine hepatocyte (live/dead test); assay type: cell-based; conditions: culture without insert, days 1, 7 and 14 of culture
From the text: Therefore, it was clarified that it is more suitable for culture of porcine hepatocyte to use PuraMatrix of SEQ ID NO:1 Since the appended Photographs are converted into white and black two tones, dyed colors are not expressed.

human hepatocyte = assay: Morphological study of cultured human hepatocyte by phase-contrast and electron microscope; assay type: cell-based; conditions: culture without insert, phase-contrast microscope days 1 and 5, electron microscope day 5
Experimental: Donor liver judged to be unsuitable for transplantation in the United States was obtained from National Disease Research Interchange via HUMAN & ANIMAL BRIDGING […] ORGANIZATION laboratory (Ichikawa city, Chiba prefecture, responsible person) in the form of liver block (130 g) which was then separated into hepatocyte in the same manner as for the above-described isolation of porcine hepatocyte in Example 1.
Recently, it has been known that when three-dimensional culture of cells is performed on scaffold, cell functions are improved and maintained. […] In contrast, human hepatocytes cultured with collagen type I (monolayer) (group B) adhered in flat form to the surface of the culture flask (see, Photograph 1 in FIG. 7(a)). […] As a result, it was clarified that it is more suitable for culture of human hepatocyte to use PuraMatrix of SEQ ID NO:1.

porcine hepatocyte [2] = assay: Metabolic ability of diazepam in cultured porcine hepatocyte
Experimental: Large white male pigs (body weight: 15 to 20 kg) were used. 1.5 ml of ketalar for intramuscular injection was injected to cause sedation and then, auricular vein was acquired and 5 mg/kg of isozol and 1 mg/kg of musculax were administered intravenously to obtain muscle relaxation. After endotracheal intubation, peritoneotomy was performed under general anesthesia with sevoflurene under controlled ventilation by an artificial respirator. A liver lateral region of the pig was surgically excised (about 80 g), perfusion was performed through excised cross-section portal vein and hepatic vein. First, the excised liver was perfused with a primary perfusion solution (sodium chloride 9 g/L, potassium chloride 0.42 g/L, sodium hydrogen carbonate 2.1 g/L, glucose 0.9 g/L, HEPES 4.78 g/L, ethylenediamine tetraacetic acid (EDTA) 0.37 g/L), subsequently, perfused with a secondary perfusion solution containing no EDTA (sodium chloride 9 g/L, potassium chloride 0.42 g/L, sodium hydrogen carbonate 2.1 g/L, glucose 0.9 g/L, HEPES 4.78 g/L). Thereafter, perfusion of the liver, kept at 39° C., was done with a dispase solution (sodium chloride 9 g/L, potassium chloride 0.42 g/L, sodium hydrogen carbonate 2.1 g/L, glucose 0.9 g/L, HEPES 4.78 g/L, dispase 8.4 g/L) (available from Godo Shusei K. K., Tokyo, Japan) and finally, with a collagenase solution (sodium chloride 9 g/L, potassium chloride 0.42 g/L, sodium hydrogen carbonate 2.1 g/L, glucose 0.9 g/L, HEPES 4.78 g/L, collagenase 0.5 g/L (available from Nitta Gelatin Inc., Osaka, Japan), calcium chloride monohydrate 0.55 g/L). […]
The metabolic abilities of diazepam in cultured porcine hepatocyte were measured and compared between groups A and B. Diazepam (1 pg/ml) was added to porcine hepatocyte media on days 1, 7 and 14 of culture, and the concentration of diazepam in the media after 24 hours was measured (entrusted to SRL K. K.), and the metabolic rate was calculated.

[3] = culture without insert, days 1, 7 and 14

## CC(=O)N[C@@H](CCCNC(=N)N)C(=O)N[C@@H](C)C(=O)N[C@@H](CC(=O)O)C(=O)N[C@@H](C)C(=O)N[C@@H](CCCNC(=N)N)C(=O)N[C@@H](C)C(=O)N[C@@H](CC(=O)O)C(=O)N[C@@H](C)C(=O)N[C@@H](CCCNC(=N)N)C(=O)N[C@@H](C)C(=O)N[C@@H](CC(=O)O)C(=O)N[C@@H](C)C(=O)N[C@@H](CCCNC(=N)N)C(=O)N[C@@H](C)C(=O)N[C@@H](CC(=O)O)C(=O)N[C@@H](C)C(N)=O [Group A, Ac-(RADA)4-CONH2]
Porcine pancreatic islet
  pancreatic islet morphology: 1. shape: 5 (spherical: 5 points)
  pancreatic islet morphology: 2. border shape: 5 (well-rounded: 5 points)
  pancreatic islet morphology: 3. integrity: 5 (solid/compact: 5 points)
  pancreatic islet morphology: sum of the evaluation values: 18 points
Human pancreatic islet
  pancreatic islet morphology: 1. shape: 5 (spherical: 5 points)
  pancreatic islet morphology: 3. integrity: 5 (solid/compact: 5 points)
  pancreatic islet morphology: sum of the evaluation values: 16 points
Porcine hepatocyte [1]
  viability of porcine hepatocytes (live cells green, dead cells red): most cells exhibited a green color
Human hepatocyte
  formation of three-dimensional spheroid by hepatocytes: formation of three-dimensional spheroid by hepatocytes was confirmed
Porcine hepatocyte [2]; culture with insert, days 1, 7, 14 and 21
  diazepam metabolic rate as compared with collagen type I (monolayer) (group B), Matrigel (group C) and collagen sandwich (group D): significantly better
Porcine hepatocyte [2]; [3]
  diazepam metabolic rate as compared with collagen type I (monolayer) (group B): significantly better
  diazepam metabolic rate as compared with collagen type I (monolayer) (group B) and Matrigel (group C): significantly better
